Results on one compound are retold here after patent US20100105730A1 (H. Lundbeck A/S, priority 2007, published 2010).

For orientation: Ki means a measure of affinity in units of concentration, obtained from inhibition or displacement.

Like-named read-outs stand apart in the source and are kept apart here.

Experiment [1] addresses T1, human-homomeric 5-HT3A receptors (Homo sapiens, UniProt P46098).
T1 sequence (P46098 24-478): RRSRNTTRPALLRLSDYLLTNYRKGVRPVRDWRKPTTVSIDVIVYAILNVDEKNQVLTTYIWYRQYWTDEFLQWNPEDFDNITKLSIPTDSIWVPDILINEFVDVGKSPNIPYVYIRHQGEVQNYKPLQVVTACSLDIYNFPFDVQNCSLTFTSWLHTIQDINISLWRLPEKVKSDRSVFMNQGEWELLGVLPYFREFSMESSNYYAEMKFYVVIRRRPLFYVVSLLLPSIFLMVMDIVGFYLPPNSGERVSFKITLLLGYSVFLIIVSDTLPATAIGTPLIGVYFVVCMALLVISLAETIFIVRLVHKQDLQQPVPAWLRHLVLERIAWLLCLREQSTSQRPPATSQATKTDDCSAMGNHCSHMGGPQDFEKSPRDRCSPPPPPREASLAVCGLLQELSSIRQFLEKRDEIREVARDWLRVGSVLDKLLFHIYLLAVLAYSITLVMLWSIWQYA
In words: Electrophysiology in oocytes expressing human-homomeric 5-HT3A receptors. It is filed as cell-based. On the procedure: The experiments were carried out as follows. […] Oocytes avoid of the follicle layer were selected and incubated for 24 hours in Modified Barth's Saline buffer [88 mM NaCl, 1 mM KCl, 15 mM HEPES, 2.4 mM NaHCO3, 0.41 mM CaCl2, 0.82 mM MgSO4, 0.3 mM Ca(NO3)2] supplemented with 2 mM sodium pyruvate, 0.1 U/l penicillin and 0.1 μg/l streptomycin. Stage […] oocytes were identified and injected with 12-48 nl of nuclease free water containing 14-50 pg of cRNA coding for human 5-HT3A receptors receptors and incubated at 18° C. until they were used for electrophysiological recordings (1-7 days after injection). […] Cells were impaled with agar plugged 0.5-1 MΩ electrodes containing 3 M KCl and voltage clamped at −90 mV by a GeneClamp 500B amplifier. The oocytes were continuously perfused with Ringer buffer and the drugs were applied in the perfusate.

The next experiment addresses T2, NET (Rattus norvegicus, UniProt Q63380).
T2 construct: rat cortical synaptosome preparation; from tissue; host or cells: rat cortical synaptosomes
In words: Norepinephrine (NE) reuptake inhibition, rat cortical synaptosomes. It is filed as biochemical. To be noted: rat cortical synaptosome preparation; read-out: IC50 at NET ([3H]NE uptake). How it is done: (§1) Non-specific uptake was determined in the presence of 10 μM talsupram or citalopram and the total uptake was determined in the presence of buffer. Aliquots were incubated for 15 minutes at 37° C. […] Filters were washed and counted in a Wallac MicroBeta counter.

Experiment [2] has as its target T3, 5-HT2A receptors (Homo sapiens, UniProt P28223). In words: Binding to human 5-HT2A receptors expressed in mammalian cells. Also noted: expressed in transfected cells; host or cells: CHO cells. To be noted: mammalian cells expressing human 5-HT2A receptors.
The target of experiment [3] is T3, 5-HT2A receptors. Put plainly: 5-HT2A receptor affinity (MDL Pharmaservices catalogue number 271650). The experiment is classed as binding. On the set-up: purchased MDL Pharmaservices 271650.
Experiment [4] addresses T3, 5-HT2A receptors. In words: Antagonism of 5-HT evoked Ca2+ release in CHO cells expressing human 5-HT2A receptors (FLIPR). On the set-up: expressed in transfected cells; host or cells: CHO cells. It is filed as cell-based. How it is done:
The experiment was carried out as follows. 2 or 3 days before the experiment CHO cells expressing 250 fmol/mg human 5-HT2A receptors are plated at a density sufficient to yield a mono-confluent layer on the day of the experiment. The cells are dye loaded (Ca^2+-kit from Molecular Devices) for 60 minutes at 37° C. in a 5% CO2 incubator at 95% humidity. Basal fluorescence was monitored in a fluorometric imaging plate reader or FLIPR^384 from Molecular Devices (Sunnyvale, Calif.) with an excitation wavelength of 488 nm and an emission range of 500 to 560 nm. […] The variation in basal fluorescence should be less than 10%. […] IC; values were calculated using Cheng-Prusoff equation.

The target of another experiment is T4, SERT (Rattus norvegicus, UniProt P31652).
T4 construct: rat cortical synaptosome preparation; from tissue; host or cells: rat cortical synaptosomes
Put plainly: Serotonin (5-HT) reuptake inhibition, rat cortical synaptosomes. The experiment is classed as biochemical. To be noted: rat cortical synaptosome preparation. On the procedure:
as §1

Experiment [5] relates to extracellular levels of acetylcholine in the prefrontal cortex and ventral hippocampus. In words: Microdialysis, extracellular acetylcholine levels in freely-moving rats. The experiment is classed as in vivo, rat. To be noted: FIGS. 1a and 1b. How it is done:
Male Sprague-Dawley rats, initially weighing 275-300 g, were used. The animals were housed under a 12-hr light/dark cycle under controlled conditions for regular in-door temperature (21±2° C.) and humidity (55±5%) with food and tap water available ad libitum.
Rats were anaesthetised with hypnorm/dormicum (2 ml/kg) and intracerebral guide cannulas (CMA/12) were stereotaxically implanted into the hippocampus, aiming to position the dialysis probe tip in the ventral hippocampus (co-ordinates: 5.6 mm posterior to bregma, lateral—5.0 mm, 7.0 mm ventral to dura or in the frontal cortex (co-ordinates: 3.2 mm anterior to bregma; lateral, 0.8 mm; 4.0 mm ventral to dura). Anchor screws and acrylic cement were used for fixation of the guide cannulas. The body temperature of the animals was monitored by rectal probe and maintained at 37° C. The rats were allowed to recover from surgery for 2 days, housed singly in cages. […]
Concentration of acetylcholine (ACh) in the dialysates was analysed by means of HPLC with electrochemical detection using a mobile phase consisting of 100 mM disodium hydrogenphosphate, 2.0 mM octane sulfonic acid, 0.5 mM tetramethylammonium chloride and 0.005% MB (ESA), pH 8.0. […] The latter was detected electrochemical by using a platinum electrode (Analytical cell: ESA, model 5040). […]

Another experiment has as its target T5, α1A receptor (Homo sapiens, UniProt P35348).
T5 sequence (P35348 1-466): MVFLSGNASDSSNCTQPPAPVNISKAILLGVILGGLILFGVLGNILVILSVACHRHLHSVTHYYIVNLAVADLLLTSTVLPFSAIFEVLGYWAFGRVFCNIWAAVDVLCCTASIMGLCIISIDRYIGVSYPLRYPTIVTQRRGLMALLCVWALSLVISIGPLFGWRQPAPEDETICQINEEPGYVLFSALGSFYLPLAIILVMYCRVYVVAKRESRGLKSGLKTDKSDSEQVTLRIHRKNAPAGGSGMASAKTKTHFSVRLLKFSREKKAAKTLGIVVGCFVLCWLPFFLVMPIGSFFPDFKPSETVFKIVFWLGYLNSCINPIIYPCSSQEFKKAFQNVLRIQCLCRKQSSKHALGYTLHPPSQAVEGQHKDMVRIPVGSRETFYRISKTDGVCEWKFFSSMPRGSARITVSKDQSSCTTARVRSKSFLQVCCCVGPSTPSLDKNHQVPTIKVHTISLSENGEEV
Put plainly: α1A receptor affinity, [3H]-Prazosin binding to membranes. To be noted: Ki by Cheng Prusoff, read-out: Ki, affinity for α1A receptors. How it is done: On the day of the experiments membranes (see below for description of membrane preparation) are thawed and homogenized in buffer using an ultra turrax and diluted to the desired concentration (5 μg/well˜5/900 μl, store on ice until use). The experiment is initiated by mixing of 50 μl test compound, 50 μl [^3H]-Prazosin and […], and the mixture is incubated for 20 minutes at 25° C. Non-specific binding is determined in the presence of 10 μM WB-4101 and the total binding is determined in the presence of buffer. After the incubation, bound ligand is separated from unbound by filtration through Unifilter GF/B, presoaked in 0.1% PEI for 30 minutes, using a Tomtec Cell Harvester program (D4.2..4). 96 well. Filters are washed 3 times with 1 ml ice-cold buffer, dried at 50° C. and 35 μl scintillation liquid/well is added to the filters. Bound radioactivity is counted in a Wallac OY 1450 MicroBeta. […] Concentrations of compound covering 2 decades were used to calculate the IC50 value.

The subject of experiment [6] is formalin model of neuropathic pain. In words: Formalin model of neuropathic pain in mice. It is filed as in vivo, C57/B6 mice. How it is done: The irritation caused by the formalin injection elicits a characteristic biphasic behavioural response, as quantified by the amount of time spent licking the injured paw. The first phase (—O—10 minutes) represents direct chemical irritation and nociception, whereas the second (−20-30 minutes) is thought to represent pain of neuropathic origin. The two phases are separated by a quiescent period in which behaviour returns to normal. Measuring the amount of time spent licking the injured paw in the two phases assesses the effectiveness of test compounds to reduce the painful stimuli. Eight C57/B6 mice (ca. 25 g) were tested per group. […] The amount of compound administered is calculated as the free base.

In experiment [7] the test system is extracellular dopamine (DA) levels in the rat frontal cortex. Put plainly: Microdialysis, extracellular dopamine levels in rat frontal cortex. It is filed as in vivo. To be noted: single injection. How it is done:
Male Sprague-Dawley rats, initially weighing 275-300 g, were used. The animals were housed under a 12-hr light/dark cycle under controlled conditions for regular in-door temperature (21±2° C.) and humidity (55±5%) with food and tap water available ad libitum. For the three-day treatment experiments osmotic minipumps (Alzet, 2ML1) were used. The pumps were filled under aseptic conditions and implanted subcutaneously under sevoflurance anaesthesia. The experiments were carried out with the minipumps on board. Blood samples for measuring plasma levels of the test compound after 3 days of treatment were collected at the end of the experiments. Animals were anaesthetised with hypnorm/dormicum (2 ml/kg) and intracerebral guide cannulas (CMA/12) were stereotaxically implanted into the hippocampus, positioning the dialysis probe tip in the ventral hippocampus (co-ordinates: 5.6 mm […] to bregma, lateral—5.0 mm, 7.0 mm ventral to dura or in the frontal cortex (co-ordinates: 3.2 mm anterior to bregma; lateral, 3.0 mm; 4.0 mm ventral to dura). Anchor screws and acrylic cement were sued for fixation of the guide cannulas. The body temperature of the animals was monitored by rectal probe and maintained at 37° C. The rats were allowed to recover from surgery for 2 days, housed singly in cages. […]

T3 sequence (P28223 whole entry): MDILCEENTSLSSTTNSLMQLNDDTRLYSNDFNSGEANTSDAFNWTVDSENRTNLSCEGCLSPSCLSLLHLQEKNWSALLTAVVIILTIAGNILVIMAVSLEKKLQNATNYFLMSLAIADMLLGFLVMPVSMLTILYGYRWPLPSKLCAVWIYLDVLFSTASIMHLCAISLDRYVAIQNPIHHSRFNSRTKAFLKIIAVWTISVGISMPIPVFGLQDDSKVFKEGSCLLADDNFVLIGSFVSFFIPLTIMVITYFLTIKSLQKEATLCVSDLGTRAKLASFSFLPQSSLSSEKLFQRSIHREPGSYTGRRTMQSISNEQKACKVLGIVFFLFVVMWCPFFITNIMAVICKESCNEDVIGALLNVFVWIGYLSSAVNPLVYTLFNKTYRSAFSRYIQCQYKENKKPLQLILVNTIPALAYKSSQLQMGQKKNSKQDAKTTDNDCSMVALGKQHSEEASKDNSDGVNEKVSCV
T4 sequence (P31652 whole entry): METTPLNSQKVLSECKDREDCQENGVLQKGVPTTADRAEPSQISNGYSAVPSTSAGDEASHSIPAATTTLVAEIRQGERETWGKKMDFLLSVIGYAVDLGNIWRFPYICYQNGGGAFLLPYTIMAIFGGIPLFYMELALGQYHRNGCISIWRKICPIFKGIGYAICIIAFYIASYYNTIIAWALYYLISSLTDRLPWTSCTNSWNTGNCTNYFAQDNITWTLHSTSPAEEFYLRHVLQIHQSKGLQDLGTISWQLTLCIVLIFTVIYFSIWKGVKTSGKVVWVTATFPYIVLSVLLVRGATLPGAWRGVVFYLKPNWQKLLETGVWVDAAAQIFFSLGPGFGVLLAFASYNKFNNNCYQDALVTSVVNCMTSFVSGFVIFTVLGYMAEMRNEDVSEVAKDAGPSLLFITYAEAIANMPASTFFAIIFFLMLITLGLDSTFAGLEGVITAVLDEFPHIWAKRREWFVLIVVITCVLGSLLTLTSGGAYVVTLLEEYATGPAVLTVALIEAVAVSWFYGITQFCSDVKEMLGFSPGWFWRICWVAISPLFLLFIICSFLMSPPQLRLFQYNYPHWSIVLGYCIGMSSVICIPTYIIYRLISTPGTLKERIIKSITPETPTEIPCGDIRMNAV
T2 sequence (Q63380 1-617): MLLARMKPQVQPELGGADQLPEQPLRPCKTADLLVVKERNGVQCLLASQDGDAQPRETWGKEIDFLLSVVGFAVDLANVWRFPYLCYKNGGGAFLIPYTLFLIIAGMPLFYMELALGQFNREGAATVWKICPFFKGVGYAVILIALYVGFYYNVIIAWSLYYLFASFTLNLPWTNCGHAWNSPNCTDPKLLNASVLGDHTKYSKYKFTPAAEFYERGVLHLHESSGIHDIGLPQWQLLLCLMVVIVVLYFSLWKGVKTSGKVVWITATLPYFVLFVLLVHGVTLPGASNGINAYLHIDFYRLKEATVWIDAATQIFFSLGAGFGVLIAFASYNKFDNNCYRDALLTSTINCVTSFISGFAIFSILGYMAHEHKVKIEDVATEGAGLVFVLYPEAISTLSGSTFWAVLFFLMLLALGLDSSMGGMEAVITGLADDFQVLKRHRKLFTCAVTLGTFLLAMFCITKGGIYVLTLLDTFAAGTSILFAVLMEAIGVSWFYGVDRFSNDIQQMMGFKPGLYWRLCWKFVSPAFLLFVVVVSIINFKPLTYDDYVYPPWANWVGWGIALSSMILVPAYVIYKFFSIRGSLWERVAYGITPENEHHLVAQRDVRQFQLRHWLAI

For the compound `Cc1ccc(Sc2ccccc2C2CCNCC2)cc1` [compound I, 4-[2-(4-methylphenylsulfanyl)phenyl]piperidine], the Kb was ~2 nM in experiment [1] (0.1 nM-100 nM, read-out: Kb, antagonism in low concentrations); 67 nM on 5-HT2A receptors [4] (Kb, antagonism of 5-HT evoked release of Ca2+ from intracellular stores, functional assay); 100 nM at 5-HT2A receptors [4] (schild analysis, read-out: Kb, schild analysis (competitive antagonism)). Moreover, the EC50 in experiment [1] (100-100000 nM, read-out: EC50, agonistic properties in higher concentrations) is ~2600 nM. Moreover, in experiment [1] (agonism at higher concentrations (100-100000 nM)), the “maximal current, % of the maximal current elicited by 5-HT itself” value is 70-80%. Moreover, the IC50 is ~10 nM in experiment [1] (read-out: IC50, antagonism in low concentrations); 23 nM on NET; 8 nM against SERT. Also, the Ki is < 100 nM on 5-HT2A receptors [2], 54 nM at 5-HT2A receptors [3] and 34 nM at α1A receptor. Further, in [5], the “extra-cellular acetylcholine levels in the brain” value is “dose dependent increase”. The “time spent licking the injured paw, 0-5 minutes” value in [6] (1.0 mg/kg, first phase) was 37 s; in experiment [6] (10 mg/kg, first phase) it was 37 s. For the same compound, in experiment [6] (1.0 mg/kg, second phase), the “time spent licking the injured paw, 20-30 minutes” value was 43 s. In addition, the “effect in the first phase (direct chemical irritation and nociception)” value in experiment [6] (first phase, in words) is recorded as “little effect”. The “time spent licking paws in the second phase” value in [6] (second phase, in words) is “clear and dose dependent decrease”. Also, the “enhancement of DA levels above baseline levels” value in experiment [7] (8.9 mg/kg s.c.) is given as “approximately 100%”; in experiment [7] (18 mg/kg s.c.) it was ~150%.
